Laboratory results reported in the NIST ThermoML archive (doi:10.1021/je900278v).

Tests used:
[1] = 101 kPa, Liquid; for viscosity: 293.15 K, Capillary tube (Ostwald / Ubbelohde) method; for mass density: 298.15 K
[2] = xn = mol fraction of the nth substance listed; settings: 101 kPa, Liquid; for viscosity: 293.15 K, Capillary tube (Ostwald / Ubbelohde) method; for mass density: 298.15 K

BrCCBr [1,2-dibromoethane]
[1]
Settings | mass density [kg/m3] | viscosity [mPa·s]
– | 2179.59 | 1.733

BrCCBr [1,2-dibromoethane] + CCCCCCO
[2]
Settings | mass density [kg/m3] | viscosity [mPa·s]
x1 = 0.0402 | 856.608 | 4.925
x1 = 0.0682 | 883.413 | 4.703
x1 = 0.1276 | 941.916 | 4.275
x1 = 0.2056 | 1022.36 | 3.781
x1 = 0.2686 | 1090.47 | 3.412
x1 = 0.3892 | 1228.97 | 2.862
x1 = 0.4277 | 1276.43 | 2.711
x1 = 0.5444 | 1427.13 | 2.325
x1 = 0.6405 | 1562 | 2.07
x1 = 0.7326 | 1701.64 | 1.877
x1 = 0.8519 | 1899.69 | 1.726
x1 = 0.9273 | 2036.52 | 1.69
x1 = 0.9587 | 2096.51 | 1.692
x1 = 0.9782 | 2135.29 | 1.71
x1 = 1 | 2179.59 | 1.733

ClCCCl [1,2-dichloroethane]
[1]
Settings | mass density [kg/m3] | viscosity [mPa·s]
– | 1252.77 | 0.827

ClCCCl [1,2-dichloroethane] + CCCCCCO
[2]
Settings | mass density [kg/m3] | viscosity [mPa·s]
x1 = 0.037 | 828.769 | 5.008
x1 = 0.0769 | 839.847 | 4.696
x1 = 0.1499 | 860.583 | 4.191
x1 = 0.2147 | 879.725 | 3.787
x1 = 0.2935 | 904.954 | 3.292
x1 = 0.3952 | 940.475 | 2.726
x1 = 0.4532 | 962.107 | 2.405
x1 = 0.5596 | 1005.05 | 1.894
x1 = 0.6113 | 1027.55 | 1.677
x1 = 0.6971 | 1067.98 | 1.372
x1 = 0.7791 | 1111.06 | 1.137
x1 = 0.8563 | 1155.16 | 0.977
x1 = 0.9335 | 1205.43 | 0.873
x1 = 0.979 | 1236.99 | 0.833
x1 = 1 | 1252.77 | 0.827

CCCCCCO [hexan-1-ol]
[1]
Settings | mass density [kg/m3] | viscosity [mPa·s]
– | 818.856 | 5.291

CCCCCCO [hexan-1-ol] + BrCCBr
[2], x2 = 0
Settings | mass density [kg/m3] | viscosity [mPa·s]
– | 818.856 | 5.291

CCCCCCO [hexan-1-ol] + ClC(Cl)=C(Cl)Cl
[2], x2 = 0
Settings | mass density [kg/m3] | viscosity [mPa·s]
– | 818.856 | 5.291

CCCCCCO [hexan-1-ol] + ClCCCl
[2], x2 = 0
Settings | mass density [kg/m3] | viscosity [mPa·s]
– | 818.856 | 5.291

ClC(Cl)=C(Cl)Cl [tetrachloroethene]
[1]
Settings | mass density [kg/m3] | viscosity [mPa·s]
– | 1622.74 | 0.89

ClC(Cl)=C(Cl)Cl [tetrachloroethene] + CCCCCCO
[2]
Settings | mass density [kg/m3] | viscosity [mPa·s]
x1 = 0.0688 | 864.637 | 4.756
x1 = 0.123 | 901.521 | 4.351
x1 = 0.2457 | 987.759 | 3.493
x1 = 0.3618 | 1072.99 | 2.772
x1 = 0.4502 | 1140.46 | 2.308
x1 = 0.5583 | 1226.3 | 1.853
x1 = 0.6518 | 1303.62 | 1.534
x1 = 0.7068 | 1350.53 | 1.382
x1 = 0.7419 | 1381.18 | 1.297
x1 = 0.7797 | 1414.65 | 1.213
x1 = 0.8315 | 1461.44 | 1.116
x1 = 0.8718 | 1498.8 | 1.051
x1 = 0.9179 | 1542.25 | 0.982
x1 = 0.9504 | 1573.61 | 0.942
x1 = 1 | 1622.74 | 0.89
